Data taken from patent US20250064990A1, “METHODS OF SCREENING FOR VMAT2 INHIBITORS” (Neurocrine Biosciences, Inc., priority 2021, published 2025).
≈ marks a conversion by molar mass, not a printed value. Like-named read-outs stand apart in the source and are kept apart here.

Biological target: VMAT2 (Homo sapiens, UniProt Q05940)
Assay: VMAT2 target occupancy of single oral doses of NBI-750142 in healthy adult male subjects, [^18F]AV-133 PET
Type: in vivo
Set-up: from tissue; host or cells: brain (caudate, putamen, midbrain) of living healthy adult male subjects
Details: for [^18F]AV-133 BPND T2 / NBI-750142 T2 Occ: T2 (18 h post dose); for NBI-750142 T1 Occ / [^18F]AV-133 BPND T1: T1 ([…] post dose); for EC50: read-out: EC50 (NBI-750142 plasma concentration vs VMAT2 striatal occupancy) (converted)
Procedure: This study was conducted to evaluate the brain penetration and target engagement of VMAT2 after single oral doses of NBI-750142 in healthy subjects. This PET study assessed the engagement of NBI-750142 with VMAT2 in vivo at two time-points after dosing. A sequential-cohort design allowed for the safety, target-occupancy, and available pharmacokinetic (PK) data from each prior cohort to be evaluated before selection of the dose level for the next cohort. A range of NBI-750142 doses (max. 200 mg) were studied to explore the relationship between NBI-750142 plasma concentrations and engagement of VMAT2 in selected brain regions.
This was a Phase 1 single-center, open-label, single-dose, target occupancy study of NBI-750142 in up to 12 healthy male subjects using [^18F]AV-133 PET imaging. […] A total of 12 subjects completed the study. Subjects enrolled in the study were required to report to the clinical research site for 4 separate occasions, detailed below.
Two subjects were initially enrolled in each dose cohort. Each subject received one brain structural magnetic resonance imaging (MRI) scan during screening and up to 3 [^18F]AV-133 PET scans (1 baseline and up to 2 follow-up scans after receiving a single dose of NBI-750142). Subjects enrolled in the first cohort received a single dose of 100 mg of NBI-750142 orally on Day 1. PET scans occurred on Day 1 at approximately 1.5 hours post NBI-750142 dose and on Day 2 at approximately 18 hours post NBI-750142 dose. Subjects were then discharged from the study center after all Day 3 procedures and assessments were completed.
Subjects were administered a single dose of [^18F]AV-133 intravenously over 3 minutes using an infusion pump (approximately 3.33 mL per minute) through a venous catheter followed by a 10 mL saline flush. Dynamic PET imaging of the brain was acquired over 120 min following radiotracer injection on a Siemens Biograph 6 PET/CT camera according to the following protocol: • CT scan of the head • [^18F]AV-133 injection (T=0 min) • Emission scan: 6×30 sec, 4×1 min, 4×2 min, 21×5 min (0-120 min)
Reconstructed PET imaging data volumes were transferred to the image processing PMOD software package (PMOD Technologies, Zurich, Switzerland) where the images were motion and decay corrected, realigned onto the subject MRI and subsequently normalized into the standard MNI (Montreal Neurological Institute) space where volumes of interest (VOIs) were defined from a template (see e.g., Hammers et al, Adult brain maximum probability map (“Hammersmith atlas”; n30r83) in MNI space. 2008). The subject MRI was segmented into grey matter, white matter, and CSF maps. Average activity concentration (kBq/cc) within each VOI, constrained to grey matter voxels for cortical regions, were determined and time activity curves (TACs) were generated. TACs were extracted from the following VOIs: caudate and putamen (striatum), midbrain, cerebellar and occipital cortices. TACs and were expressed in standard uptake value (SUV) units (g/mL) by normalizing with the weight of the subject and the injected dose. The occipital cortex was used as a reference region to normalize activity in target regions to generate SUVr images. For visualization, standard uptake value ratio (SUVr) images were computed between 60-120 min. Non-displaceable binding potential (BPND), the primary outcome measure, was estimated with noninvasive Logan graphical analysis (NI-LGA, t*=20 min) in caudate, putamen and midbrain using the occipital cortex as the reference region. Percent measured occupancy (OM) of NBI-750142 (drug) by region was computed according to the Equation 3-1 at each of the post-dose timepoints, T1 (1.5 h post dose) and T2 (18 h post dose).
Post-hoc exploratory analysis applied an Upregulation model (Equation 3-3), in order to account for the apparent ‘negative occupancy’ values observed at T2 (BPND values at T2 were unexpectedly higher than corresponding BPND values at baseline). […]

[1] = Cohort 4, 60 mg, Subject 1, Midbrain
[2] = Cohort 4, 60 mg, Subject 1, Putamen
[3] = Cohort 4, 60 mg, Subject 2, Caudate
[4] = Cohort 4, 60 mg, Subject 2, Midbrain
[5] = Cohort 4, 60 mg, Subject 2, Putamen
[6] = Cohort 5A, 10 mg, Subject 1, Caudate (2nd line so labelled)
[7] = Cohort 5A, 10 mg, Subject 1, Caudate
[8] = Cohort 5A, 10 mg, Subject 1, Midbrain
[9] = Cohort 5A, 10 mg, Subject 2, Caudate (2nd line so labelled)
[10] = Cohort 5A, 10 mg, Subject 2, Caudate
[11] = Cohort 5A, 10 mg, Subject 2, Midbrain
[12] = Cohort 5B, 10 mg, Subject 3, Caudate
[13] = Cohort 5B, 10 mg, Subject 3, Midbrain
[14] = Cohort 5B, 10 mg, Subject 3, Putamen
[15] = Cohort 5B, 10 mg, Subject 4, Caudate
[16] = Cohort 5B, 10 mg, Subject 4, Midbrain
[17] = Cohort 5B, 10 mg, Subject 4, Putamen
[18] = Upregulation model, post hoc exploratory, both T1 and T2 data
[19] = average of caudate and putamen, 100 mg

VMAT2, sequence (Q05940 whole entry): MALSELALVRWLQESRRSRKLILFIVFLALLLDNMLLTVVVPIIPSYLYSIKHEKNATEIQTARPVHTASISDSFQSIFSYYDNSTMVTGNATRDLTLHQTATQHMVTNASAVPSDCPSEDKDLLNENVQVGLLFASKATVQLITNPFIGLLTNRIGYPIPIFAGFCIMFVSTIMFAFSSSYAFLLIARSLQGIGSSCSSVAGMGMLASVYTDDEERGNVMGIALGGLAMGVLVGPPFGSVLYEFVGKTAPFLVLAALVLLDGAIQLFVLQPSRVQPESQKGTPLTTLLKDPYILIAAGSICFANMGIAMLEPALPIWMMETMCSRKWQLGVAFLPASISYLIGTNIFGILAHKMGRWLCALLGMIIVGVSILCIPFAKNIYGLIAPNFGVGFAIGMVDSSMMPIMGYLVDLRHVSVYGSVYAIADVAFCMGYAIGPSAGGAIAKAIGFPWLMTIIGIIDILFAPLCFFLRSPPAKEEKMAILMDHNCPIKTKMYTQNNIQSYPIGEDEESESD

COc1cc2c(cc1OC)[C@H]1CN(C)[C@H](CC(C)(C)C)CN1CC2 [NBI-750142]
[^18F]AV-133 BPND T2 (Cohort 4, 60 mg, Subject 1, Caudate): 1.69
NBI-750142 T1 Occ [1]: 55%
[^18F]AV-133 BPND T1 [1]: 0.20
NBI-750142 T2 Occ [1]: −1%
[^18F]AV-133 BPND T2 [1]: 0.44
NBI-750142 T1 Occ [2]: 39%
[^18F]AV-133 BPND T1 [2]: 1.10
NBI-750142 T2 Occ [2]: −12%
[^18F]AV-133 BPND T2 [2]: 2.01
NBI-750142 T1 Occ [3]: 11%
[^18F]AV-133 BPND T1 [3]: 1.26
NBI-750142 T2 Occ [3]: −13%
[^18F]AV-133 BPND T2 [3]: 1.61
NBI-750142 T1 Occ [4]: 27%
[^18F]AV-133 BPND T1 [4]: 0.28
NBI-750142 T2 Occ [4]: −12%
[^18F]AV-133 BPND T2 [4]: 0.42
NBI-750142 T1 Occ [5]: 8%
[^18F]AV-133 BPND T1 [5]: 1.73
NBI-750142 T2 Occ [5]: −12%
[^18F]AV-133 BPND T2 [5]: 2.09
Occupancy at T2 in striatum (Cohort 4 at 60 mg, subject 1, 18 h post dose): −10%
Occupancy at T2 in striatum (Cohort 4 at 60 mg, subject 2, 18 h post dose): −12%
Occupancy at T2 in striatum (Cohort 5A at 10 mg, subject 1, 18 h post dose): −3%
Occupancy at T2 in striatum (Cohort 5A at 10 mg, subject 2, 18 h post dose): −4%
NBI-750142 T1 Occ [6]: 26%
[^18F]AV-133 BPND T1 [6]: 1.76
NBI-750142 T2 Occ [6]: −4%
[^18F]AV-133 BPND T2 [6]: 2.48
NBI-750142 T1 Occ [7]: 27%
[^18F]AV-133 BPND T1 [7]: 1.14
NBI-750142 T2 Occ [7]: −2%
[^18F]AV-133 BPND T2 [7]: 1.58
NBI-750142 T1 Occ [8]: 41%
[^18F]AV-133 BPND T1 [8]: 0.31
NBI-750142 T2 Occ [8]: 1%
[^18F]AV-133 BPND T2 [8]: 0.52
NBI-750142 T1 Occ [9]: 9%
[^18F]AV-133 BPND T1 [9]: 2.88
NBI-750142 T2 Occ [9]: −6%
[^18F]AV-133 BPND T2 [9]: 3.34
NBI-750142 T1 Occ [10]: 11%
[^18F]AV-133 BPND T1 [10]: 1.98
NBI-750142 T2 Occ [10]: −3%
[^18F]AV-133 BPND T2 [10]: 2.29
NBI-750142 T1 Occ [11]: 20%
[^18F]AV-133 BPND T1 [11]: 0.43
NBI-750142 T2 Occ [11]: −19%
[^18F]AV-133 BPND T2 [11]: 0.65
Occupancy at T2 in striatum (Cohort 5B at 10 mg, subject 3, 18 h post dose): −14%
Occupancy at T2 in striatum (Cohort 5B at 10 mg, subject 4, 18 h post dose): 5%
NBI-750142 T1 Occ [12]: −2%
[^18F]AV-133 BPND T1 [12]: 2.51
NBI-750142 T2 Occ [12]: −14%
[^18F]AV-133 BPND T2 [12]: 2.81
NBI-750142 T1 Occ [13]: 19%
[^18F]AV-133 BPND T1 [13]: 0.40
NBI-750142 T2 Occ [13]: −14%
[^18F]AV-133 BPND T2 [13]: 0.56
NBI-750142 T1 Occ [14]: −2%
[^18F]AV-133 BPND T1 [14]: 2.90
NBI-750142 T2 Occ [14]: −14%
[^18F]AV-133 BPND T2 [14]: 3.25
NBI-750142 T1 Occ [15]: −4%
[^18F]AV-133 BPND T1 [15]: 2.35
NBI-750142 T2 Occ [15]: 4%
[^18F]AV-133 BPND T2 [15]: 2.16
NBI-750142 T1 Occ [16]: 0%
[^18F]AV-133 BPND T1 [16]: 0.52
NBI-750142 T2 Occ [16]: −2%
[^18F]AV-133 BPND T2 [16]: 0.53
NBI-750142 T1 Occ [17]: −3%
[^18F]AV-133 BPND T1 [17]: 3.03
NBI-750142 T2 Occ [17]: 6%
[^18F]AV-133 BPND T2 [17]: 2.75
EC50 (Emax model, T1 occupancy values alone): 76.7 nM
EC50 (NBI-750142 plasma concentration vs VMAT2 striatal occupancy) (Emax model, both T1 and T2 occupancy values): 0.0352 µg/mL (≈ 0.106 µM)
upregulation factor (URF) (Upregulation model, both T1 and T2 data): 2.76
EC50 (NBI-750142 plasma concentration vs VMAT2 striatal occupancy) [18]: 0.0063 µg/mL (≈ 0.0189 µM)
EC50 [18]: 19.5 nM
[^18F]AV-133 striatal uptake at T2 (across all cohorts): appeared to return to, or slightly exceed, baseline levels
Occupancy in the striatum at T1, lower end of range (average of caudate and putamen, 10 mg): −4%
Occupancy in the striatum at T1, upper end of range [19]: 76%
Occupancy in the striatum at T2, upper end of range [19]: 14%
Occupancy in the striatum at T2, lower end of range (average of caudate and putamen, 200 mg): −28%
